Reference: publication PMC9019100, “Development of NanoLuc-targeting protein degraders and a universal reporter system to benchmark tag-targeted degradation platforms” (Nature Communications, 2022)
“And” between values parts separate entries of the source, which are not always exact repeats. Identical values can stand only once. Like-named read-outs stand apart in the source and are kept apart here. Peptide text beside a SMILES is read from it. * marks the point of attachment. Cbz = O=C(OCc1ccccc1)*

How the values were obtained:
[1] = biological target: T1, Halo-EGFP-NanoLuc-FKBP^F36V (H-E-N-F) fusion protein (UniProt P0A3G2+P62942+Q9GV45, A155T/A167V/A172T/A224E/A31E/A60N/A81I/C128F/C176G/D78G/E160K/E257K/F37V/F95D/H272N/I117V/K175M/K195N/K70R/L47V/L54V/L88M/L99Q/M102K/N193R/N227D/P142E/P291S/Q151K/Q38R/Q45L/S2A/S58T/T264A/V71I/Y165I/Y273L/Y87F); type: cell-based
T1 sequence (Q9GV45 other isoform, or with tags, fused parts or gaps with the stated changes): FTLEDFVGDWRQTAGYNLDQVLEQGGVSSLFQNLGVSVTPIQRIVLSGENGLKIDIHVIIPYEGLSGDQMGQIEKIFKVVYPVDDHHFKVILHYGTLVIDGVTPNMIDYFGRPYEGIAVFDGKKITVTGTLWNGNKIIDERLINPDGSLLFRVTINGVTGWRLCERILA
T1 sequence (P0A3G2 other isoform, or with tags, fused parts or gaps with the stated changes): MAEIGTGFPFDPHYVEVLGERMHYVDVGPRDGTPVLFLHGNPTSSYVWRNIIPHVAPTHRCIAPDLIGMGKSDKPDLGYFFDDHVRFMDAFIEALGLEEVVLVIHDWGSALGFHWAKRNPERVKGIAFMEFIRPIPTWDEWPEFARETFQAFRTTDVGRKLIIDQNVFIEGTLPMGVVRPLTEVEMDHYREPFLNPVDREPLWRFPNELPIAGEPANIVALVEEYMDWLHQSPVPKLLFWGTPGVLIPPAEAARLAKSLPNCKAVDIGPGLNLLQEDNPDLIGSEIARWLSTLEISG
T1 sequence (P62942 whole entry F37V, the tested form may be a part): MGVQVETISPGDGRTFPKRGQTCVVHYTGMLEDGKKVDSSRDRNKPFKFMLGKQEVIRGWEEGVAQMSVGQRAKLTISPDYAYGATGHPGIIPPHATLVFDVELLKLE

[2] = system: wild-type HT29 cells; assay: Necroptosis assay (PI exclusion, flow cytometry), wild-type HT29 cells, TNF+SM+IDN; type: cell-based, human; conditions: sheet S5F
Method: To simulate necroptosis, cells were seeded into 96-well plates ±40 ng/mL doxycycline, to induce construct expression, and treated with 100 ng/mL FLAG-TNF (recombinant human, in-house), 500 nM compound A Smac mimetic (kindly gifted by TetraLogics Pharmaceuticals) and 5 μM IDN-6556 (Cayman) or 10 uM Z-VAD-fmk (Selleckchem) overnight (16–24 h). Degrader compounds or a DMSO vehicle control were added for 5 h, as stated in the Fig. legends. Cells were detached using Trypsin-EDTA (Merck) and resuspended in cell supernatants containing 10 μg/mL propidium iodide (PI). PI exclusion analysis was performed using an LSR II flow cytometer (Becton Dickinson, NJ) with 10,000 single-cell events per sample. Flow cytometry data were analysed using WEASEL version 2.7 software (Frank Battye).
Supplementary Figure 5. […]
NC4. Data are representative of N = 3 independent experiments. f-h. HT29 cells were stimulated with DMSO (control) or 500 nM of degrader for 5 hours before the addition of TNF (100 ng/mL) + Smac mimetic (compound A; 500 nM-1 µM) + caspase inhibitor; Emricasan (IDN) (5 µM), for 24 hours. Cell death was assessed by flow cytometric analysis of PI exclusion. N = 3 replicates (symbols) is shown, EB; mean ± SD. Data are representative of N = 3 independent experiments. i. Representative flow cytometry gating strategy. Source data are provided as a Source Data file.

[3] = biological target: T1, Halo-EGFP-NanoLuc-FKBP^F36V (H-E-N-F) fusion protein; type: cell-based; conditions: 125-500 nM, 5 h
[4] = biological target: recombinant NanoLuc enzyme (Oplophorus gracilirostris, UniProt Q9GV45, A31E/A60N/A81I/F95D/I117V/K70R/L54V/L99Q/M102K/N193R/P142E/Q151K/Q38R/Q45L/V71I/Y165I); type: biochemical; conditions: replicates
recombinant NanoLuc enzyme, sequence (Q9GV45 other isoform, or with tags, fused parts or gaps with the stated changes): as the sequence (Q9GV45 other isoform, or with tags, fused parts or gaps with the stated changes) above

[5] = system: NanoLuc; conditions: read-out: IC50 against the enzymatic activity of NanoLuc; cited from earlier work
[6] = 62.5nM, sheet S3B, replicate wells
[7] = 250nM, sheet S3B, replicate wells
[8] = 500nM, sheet S3B, replicate wells
[9] = 1uM, sheet S3B, replicate wells

O=C(COCCOCCCCCCCl)NCCCCNc1cccc2c1C(=O)N(C1CCC(=O)NC1=O)C2=O (stereo not drawn) [HC2]
Blank corrected (470-80) [1, 6]: 420571 and 387799 and 422451 and 372874 | Fold Change [1, 6]: 29.7356 and 27.4185 and 29.8685 and 26.3633 | Blank corrected (470-80) [1, 7]: 400261 and 371225 and 406289 and 348754 | Fold Change [1, 7]: 28.2996 and 26.2467 and 28.7258 and 24.6579 | Blank corrected (470-80) [1, 8]: 327362 and 397295 and 324101 and 372826 | Fold Change [1, 8]: 23.1455 and 28.0899 and 22.9149 and 26.3599 | Blank corrected (470-80) [1, 9]: 379647 and 379271 and 373688 and 369126 | Fold Change [1, 9]: 26.8422 and 26.8156 and 26.4208 and 26.0983

O=C1CCC(N2C(=O)c3cccc(OCCOCCCCCCCl)c3C2=O)C(=O)N1 (stereo not drawn) [HC3]
Blank corrected (470-80) [1, 6]: 383533 and 318115 and 323446 and 301555 | Fold Change [1, 6]: 27.1169 and 22.4917 and 22.8686 and 21.3208 | Blank corrected (470-80) [1, 7]: 323125 and 344451 and 351301 and 328848 | Fold Change [1, 7]: 22.8459 and 24.3537 and 24.838 and 23.2505 | Blank corrected (470-80) [1, 8]: 366778 and 337071 and 347923 and 313983 | Fold Change [1, 8]: 25.9323 and 23.8319 and 24.5992 and 22.1995 | Blank corrected (470-80) [1, 9]: 388451 and 372097 and 370806 and 376397 | Fold Change [1, 9]: 27.4646 and 26.3084 and 26.2171 and 26.6124

CC(C)C[C@@H](C=O)NC(=O)[C@H](CC(C)C)NC(=O)[C@H](CC(C)C)NC(=O)OCc1ccccc1 [MG132] (Cbz-Leu-Leu-Leu-aldehyde)
Blank corrected Raw Data (470-80) ([1]; +dox, MG132 (10uM) alone (DMSO instead of PROTAC)): 83521 and 88764 and 88216 and 91215 | Fold Change ([1]; +dox, MG132 (10uM) alone (DMSO instead of PROTAC), fold of -dox well): 83.7723 and 89.0311 and 88.4814 and 91.4895

CCc1cccc(N(CC)C(=O)Cn2c(C(=O)NC3CCC(C(=O)NCCCCCCCC(=O)NCCCCCCOc4cccc5c4C(=O)N(C4CCC(=O)NC4=O)C5=O)CC3)cc3ccccc32)c1 (stereo not drawn) [NC3]
viable cells (PI exclusion) ([2]; TNF+SM+IDN): 7.5 and 6.4 and 5.5 | viable cells (PI exclusion) ([2]; Unt (no death stimulus)): 69.5 and 75.6 and 73.1 | degradation of the H-E-N-F substrate protein by Western blot, comparison of NanoTACs [3]: consistently outperforming the first analogue NC1

CCc1cccc(N(CC)C(=O)Cn2c(C(=O)NC3CCC(C(=O)NCCCCCCCC(=O)NCCCCNc4cccc5c4C(=O)N(C4CCC(=O)N(C)C4=O)C5=O)CC3)cc3ccccc32)c1 (stereo not drawn) [NC*]
NanoLuc luminescence, Blank corrected (470-80) ([1]; 62.5nM, 2h, replicate wells): 6632 and 6164 and 5786 | NanoLuc luminescence, Blank corrected (470-80) ([1]; 62.5nM, 4h, replicate wells): 6756 and 7430 and 5962 and 6824 | NanoLuc luminescence, Blank corrected (470-80) ([1]; 62.5nM, 6h, replicate wells): 6820 and 5574 and 6168 | NanoLuc luminescence, Blank corrected (470-80) ([1]; 62.5nM, 8h, replicate wells): 5136 and 5355 and 4609 | NanoLuc luminescence, Blank corrected (470-80) ([1]; 62.5nM, 10h, replicate wells): 4237 and 3067 and 4015 | NanoLuc luminescence, Blank corrected (470-80) ([1]; 250nM, 2h, replicate wells): 1984 and 2219 and 1857 | NanoLuc luminescence, Blank corrected (470-80) ([1]; 250nM, 4h, replicate wells): 1613 and 1684 and 1340 | NanoLuc luminescence, Blank corrected (470-80) ([1]; 250nM, 6h, replicate wells): 1527 and 1526 and 1826 and 1766 | NanoLuc luminescence, Blank corrected (470-80) ([1]; 250nM, 8h, replicate wells): 1602 and 1230 and 1627 | NanoLuc luminescence, Blank corrected (470-80) ([1]; 250nM, 10h, replicate wells): 919 and 829 and 1005 | NanoLuc luminescence, Blank corrected (470-80) ([1]; 500nM, 2h, replicate wells): 1232 and 850 and 1011 and 825 | NanoLuc luminescence, Blank corrected (470-80) ([1]; 500nM, 4h, replicate wells): 934 and 992 and 902 | NanoLuc luminescence, Blank corrected (470-80) ([1]; 500nM, 6h, replicate wells): 854 and 738 and 679 and 842 | NanoLuc luminescence, Blank corrected (470-80) ([1]; 500nM, 8h, replicate wells): 717 and 620 and 849 | NanoLuc luminescence, Blank corrected (470-80) ([1]; 500nM, 10h, replicate wells): 481 and 501 and 461

CCc1cccc(N(CC)C(=O)Cn2c(C(=O)N[C@H]3CC[C@H](C(=O)NCCCCCCCC(=O)O)CC3)cc3ccccc32)c1 [NanoLuc Inhibtor 2]
NanoLuc luminescence (enzyme activity remaining) ([4]; [uM] -0.30103 (log10 concentration)): 0.9 | NanoLuc luminescence (enzyme activity remaining) ([4]; [uM] -0.82391 (log10 concentration)): 1.5 (2×) and 1.6 | NanoLuc luminescence (enzyme activity remaining) ([4]; [uM] -1.34679 (log10 concentration)): 4.4 and 4.7 and 4.6 | NanoLuc luminescence (enzyme activity remaining) ([4]; [uM] -1.86967 (log10 concentration)): 23.6 and 24.5 and 24.3 | NanoLuc luminescence (enzyme activity remaining) ([4]; [uM] -2.39254 (log10 concentration)): 55.8 and 56.1 and 58 | NanoLuc luminescence (enzyme activity remaining) ([4]; [uM] -2.91542 (log10 concentration)): 74.8 and 76.4 and 76 | NanoLuc luminescence (enzyme activity remaining) ([4]; [uM] -3.4383 (log10 concentration)): 81.7 and 82.7 and 82.1

CCN(C(=O)Cn1c(C(=O)N[C@H]2CC[C@H](C(=O)NCCCCCCCC(=O)O)CC2)cc2sccc21)c1cccc(C)c1 [NanoLuc inhibitor 1]
IC50 [5]: 31 nM

CCc1cccc(N(CC)C(=O)Cn2c(C(=O)N[C@H]3CC[C@H](C(=O)NCCCCCCCC(=O)O)CC3)cc3ccccc32)c1 [NanoLuc inhibitor 2]
IC50 [5]: 4.2 nM
